Measurements reported in patent publication US20110053923A1, “CHEMICAL COMPOUNDS 610” (AstraZeneca, priority 2008, published 2011).
Like-named read-outs stand apart in the source and are kept apart here.

Assays:
HT29 cells = experiment: Cellular SRB assay (Test (d)), potentiation of carboplatin; format: cell-based; details: for IC50: geometric mean
Description: (d) Cellular—SRB Assay The potentiation factor (PF50) for compounds is a measure of the fold increase in effect of a chemotherapeutic agent, when used in combination with an ATR inhibitor. Specifically, this is calculated as a ratio of the IC50 of control cell growth in the presence of a chemotherapeutic agent, typically carboplatin, divided by the IC50 of cell growth in the presence of this agent and the ATR inhibitor of interest. For this purpose, HT29 cells were seeded at the appropriate density to ensure exponential growth throughout the time of the assay (typically 1000-1500 cells) in each well of a 96-well plate, in a volume of 80 μl and incubated overnight at 37° C. Subsequently, cells were dosed with either DMSO vehicle, or treated with test compounds at fixed concentrations (typically 1, 0.3 & 0.1 μM). Following a one hour incubation at 37° C., the cells were further treated with a 10 point dose response of the chemotherapeutic agent, based on it's known sensitivity (typically 30-0.001 ug/ml for carboplatin). Cells were left to grow for 5 days at 37° C., after which time cell growth was assessed using the sulforhodamine B (SRB) assay (Skehan, P et al, 1990 New colorimetric cytotoxic assay for anticancer-drug screening. J. Natl. Cancer Inst. 82, 1107-1112.). Specifically, the media was removed and cells fixed with 100 μl of ice cold 10% (w/v) trichloroacetic acid. The plates were then incubated at 4° C. for 20 minutes prior to washing 4 times with water. Each well was then stained with 100 μL of 0.4% (w/v) SRB in 1% acetic acid for 20 minutes before a further 4 washes with 1% acetic acid. Plates were then dried for 2 hours at room temperature and the dye was solubilized by the addition of 100 μL Tris Base pH 8.5 into each well. Plates were shaken before measuring optical density at 564 nm (OD564). In order to calculate the PF50, the OD564 values obtained for the dose-response curve of chemotherapeutic agent were expressed as a percentage of the value obtained from cells treated with vehicle alone. Similarly, to act as a control for inclusion of the ATR inhibitor, values from the chemotherapeutic agent tested in combination with a fixed ATR inhibitor concentration were expressed as a percentage of the value obtained from cells treated with the corresponding concentration of ATR inhibitor alone. From these internally-controlled curves, IC50 values were calculated and the PF50 was determined as the ratio of these values, as described above. Compounds are compared using the PF50 value at concentrations of ATR inhibitor that show minimal growth inhibition on their own.

mTOR = mTOR (Homo sapiens, UniProt P42345); experiment: Enzyme - mTOR Kinase Assay (Echo); format: biochemical; details: recombinant FLAG-tagged mTOR (1362-2549); AlphaScreen; ATP 20 μM;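 also: enzyme expressed in HEK293 cells, 2 h incubation at room temperature, read-out is phosphorylation of a biotinylated peptide substrate detected with an anti-phospho p70 S6 Kinase (T389) antibody, inhibition lowers signal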
ATR = molecular target: T1, ATR (Homo sapiens, UniProt Q13535); experiment: Enzyme Assay - ATR (Test (a)); format: biochemical;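 also: kinase activity of bead-bound ATR toward a GST-p53 N-terminal fragment substrate, 1 h at 37 °C, read by chemiluminescence, with inhibitor-free wells as control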
T1 construct: obtained from HeLa nuclear extract (CIL Biotech, Mons, Belgium) by immunoprecipitation with rabbit polyclonal antiserum raised to amino acids 400-480 of ATR; host or cells: HeLa nuclear extract

[1] = ATR immunoprecipitated from HeLa nuclear extract, 3 μM ATP, average of individual tests, read-out: ATR average IC50

T1 sequence (Q13535 whole entry, the tested form may be a part): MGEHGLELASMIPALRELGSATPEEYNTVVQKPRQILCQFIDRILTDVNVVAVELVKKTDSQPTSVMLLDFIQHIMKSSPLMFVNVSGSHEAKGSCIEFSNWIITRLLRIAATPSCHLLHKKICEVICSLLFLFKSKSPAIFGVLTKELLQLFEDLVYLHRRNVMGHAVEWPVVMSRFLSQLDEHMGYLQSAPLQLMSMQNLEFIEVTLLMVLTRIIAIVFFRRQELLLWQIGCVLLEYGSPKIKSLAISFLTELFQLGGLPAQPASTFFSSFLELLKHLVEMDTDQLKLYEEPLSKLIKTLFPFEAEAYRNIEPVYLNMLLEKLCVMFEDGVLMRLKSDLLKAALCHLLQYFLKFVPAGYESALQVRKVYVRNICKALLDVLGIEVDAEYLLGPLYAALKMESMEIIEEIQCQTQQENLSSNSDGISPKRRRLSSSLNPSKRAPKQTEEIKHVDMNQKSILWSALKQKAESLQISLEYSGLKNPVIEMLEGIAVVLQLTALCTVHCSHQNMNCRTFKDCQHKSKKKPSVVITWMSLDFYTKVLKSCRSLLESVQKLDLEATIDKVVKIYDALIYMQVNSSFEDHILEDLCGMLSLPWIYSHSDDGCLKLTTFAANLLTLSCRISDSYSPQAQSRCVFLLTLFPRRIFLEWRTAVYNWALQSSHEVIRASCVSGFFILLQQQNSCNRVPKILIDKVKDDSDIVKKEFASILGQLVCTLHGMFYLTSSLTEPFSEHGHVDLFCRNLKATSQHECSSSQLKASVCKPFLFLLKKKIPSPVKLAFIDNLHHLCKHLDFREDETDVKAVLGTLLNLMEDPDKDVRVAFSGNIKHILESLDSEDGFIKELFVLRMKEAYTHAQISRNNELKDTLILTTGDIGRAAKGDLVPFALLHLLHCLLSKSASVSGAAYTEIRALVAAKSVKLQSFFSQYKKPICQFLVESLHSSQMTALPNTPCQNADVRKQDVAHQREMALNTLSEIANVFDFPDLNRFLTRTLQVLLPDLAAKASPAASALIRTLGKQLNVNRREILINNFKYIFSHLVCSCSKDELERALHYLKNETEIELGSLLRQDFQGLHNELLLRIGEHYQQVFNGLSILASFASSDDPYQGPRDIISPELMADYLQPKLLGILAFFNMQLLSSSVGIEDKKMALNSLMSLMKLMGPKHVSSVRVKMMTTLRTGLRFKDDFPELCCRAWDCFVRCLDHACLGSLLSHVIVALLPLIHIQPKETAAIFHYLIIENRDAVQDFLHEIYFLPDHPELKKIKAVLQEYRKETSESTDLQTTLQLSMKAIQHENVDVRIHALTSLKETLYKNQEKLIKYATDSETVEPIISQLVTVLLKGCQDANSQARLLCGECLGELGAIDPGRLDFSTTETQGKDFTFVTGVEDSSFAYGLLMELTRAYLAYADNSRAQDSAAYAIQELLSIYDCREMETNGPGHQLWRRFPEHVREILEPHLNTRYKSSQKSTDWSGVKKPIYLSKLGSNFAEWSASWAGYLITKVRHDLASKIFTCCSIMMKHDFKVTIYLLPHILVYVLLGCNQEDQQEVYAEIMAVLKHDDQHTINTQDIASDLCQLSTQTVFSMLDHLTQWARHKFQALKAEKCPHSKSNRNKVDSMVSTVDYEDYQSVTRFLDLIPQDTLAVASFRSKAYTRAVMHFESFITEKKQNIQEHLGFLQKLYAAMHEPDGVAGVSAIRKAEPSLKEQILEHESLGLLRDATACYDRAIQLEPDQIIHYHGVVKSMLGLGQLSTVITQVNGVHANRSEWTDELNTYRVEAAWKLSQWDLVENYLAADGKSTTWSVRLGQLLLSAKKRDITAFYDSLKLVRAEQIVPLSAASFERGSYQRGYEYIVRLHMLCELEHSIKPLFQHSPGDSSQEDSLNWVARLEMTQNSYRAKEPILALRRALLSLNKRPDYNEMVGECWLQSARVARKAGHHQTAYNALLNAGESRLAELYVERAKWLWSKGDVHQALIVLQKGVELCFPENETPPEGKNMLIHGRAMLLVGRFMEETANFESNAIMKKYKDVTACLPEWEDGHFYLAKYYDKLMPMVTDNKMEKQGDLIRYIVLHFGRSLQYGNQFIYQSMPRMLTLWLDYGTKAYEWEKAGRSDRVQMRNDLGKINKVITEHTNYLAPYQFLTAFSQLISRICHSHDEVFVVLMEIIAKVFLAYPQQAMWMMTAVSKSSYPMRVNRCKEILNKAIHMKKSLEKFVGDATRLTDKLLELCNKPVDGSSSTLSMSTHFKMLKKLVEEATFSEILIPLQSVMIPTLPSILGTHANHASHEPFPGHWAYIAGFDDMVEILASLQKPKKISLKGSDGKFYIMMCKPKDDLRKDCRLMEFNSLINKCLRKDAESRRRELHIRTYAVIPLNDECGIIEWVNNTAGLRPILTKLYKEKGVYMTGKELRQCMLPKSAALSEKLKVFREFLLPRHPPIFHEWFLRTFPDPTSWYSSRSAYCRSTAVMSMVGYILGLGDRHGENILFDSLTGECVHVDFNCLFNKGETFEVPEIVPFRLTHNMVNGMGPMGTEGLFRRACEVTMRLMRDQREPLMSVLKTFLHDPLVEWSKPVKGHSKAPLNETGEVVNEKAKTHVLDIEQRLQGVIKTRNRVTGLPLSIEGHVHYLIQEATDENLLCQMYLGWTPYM
T1 sequence (Q8WXE1 whole entry partner, the tested form may be a part): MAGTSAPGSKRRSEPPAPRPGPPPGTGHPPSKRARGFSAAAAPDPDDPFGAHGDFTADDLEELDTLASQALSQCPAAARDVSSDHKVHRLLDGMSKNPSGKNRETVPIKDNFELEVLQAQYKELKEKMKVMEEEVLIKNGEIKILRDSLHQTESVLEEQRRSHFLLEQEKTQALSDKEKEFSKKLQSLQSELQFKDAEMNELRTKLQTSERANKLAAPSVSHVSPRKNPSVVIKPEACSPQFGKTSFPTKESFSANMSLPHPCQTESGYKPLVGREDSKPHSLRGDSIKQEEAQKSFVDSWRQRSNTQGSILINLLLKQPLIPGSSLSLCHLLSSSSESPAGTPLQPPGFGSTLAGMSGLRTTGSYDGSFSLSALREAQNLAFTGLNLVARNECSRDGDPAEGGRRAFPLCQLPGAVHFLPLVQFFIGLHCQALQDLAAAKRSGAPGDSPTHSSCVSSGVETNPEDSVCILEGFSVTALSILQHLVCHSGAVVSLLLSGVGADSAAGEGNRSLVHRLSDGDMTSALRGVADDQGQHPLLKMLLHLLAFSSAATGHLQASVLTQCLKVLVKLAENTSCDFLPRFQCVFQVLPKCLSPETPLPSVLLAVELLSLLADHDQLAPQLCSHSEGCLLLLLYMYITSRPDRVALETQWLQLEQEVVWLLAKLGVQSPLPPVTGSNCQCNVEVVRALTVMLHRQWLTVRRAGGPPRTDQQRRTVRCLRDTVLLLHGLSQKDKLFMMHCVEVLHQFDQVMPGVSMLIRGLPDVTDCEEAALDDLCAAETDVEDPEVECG
mTOR, sequence (P42345 1362-2549): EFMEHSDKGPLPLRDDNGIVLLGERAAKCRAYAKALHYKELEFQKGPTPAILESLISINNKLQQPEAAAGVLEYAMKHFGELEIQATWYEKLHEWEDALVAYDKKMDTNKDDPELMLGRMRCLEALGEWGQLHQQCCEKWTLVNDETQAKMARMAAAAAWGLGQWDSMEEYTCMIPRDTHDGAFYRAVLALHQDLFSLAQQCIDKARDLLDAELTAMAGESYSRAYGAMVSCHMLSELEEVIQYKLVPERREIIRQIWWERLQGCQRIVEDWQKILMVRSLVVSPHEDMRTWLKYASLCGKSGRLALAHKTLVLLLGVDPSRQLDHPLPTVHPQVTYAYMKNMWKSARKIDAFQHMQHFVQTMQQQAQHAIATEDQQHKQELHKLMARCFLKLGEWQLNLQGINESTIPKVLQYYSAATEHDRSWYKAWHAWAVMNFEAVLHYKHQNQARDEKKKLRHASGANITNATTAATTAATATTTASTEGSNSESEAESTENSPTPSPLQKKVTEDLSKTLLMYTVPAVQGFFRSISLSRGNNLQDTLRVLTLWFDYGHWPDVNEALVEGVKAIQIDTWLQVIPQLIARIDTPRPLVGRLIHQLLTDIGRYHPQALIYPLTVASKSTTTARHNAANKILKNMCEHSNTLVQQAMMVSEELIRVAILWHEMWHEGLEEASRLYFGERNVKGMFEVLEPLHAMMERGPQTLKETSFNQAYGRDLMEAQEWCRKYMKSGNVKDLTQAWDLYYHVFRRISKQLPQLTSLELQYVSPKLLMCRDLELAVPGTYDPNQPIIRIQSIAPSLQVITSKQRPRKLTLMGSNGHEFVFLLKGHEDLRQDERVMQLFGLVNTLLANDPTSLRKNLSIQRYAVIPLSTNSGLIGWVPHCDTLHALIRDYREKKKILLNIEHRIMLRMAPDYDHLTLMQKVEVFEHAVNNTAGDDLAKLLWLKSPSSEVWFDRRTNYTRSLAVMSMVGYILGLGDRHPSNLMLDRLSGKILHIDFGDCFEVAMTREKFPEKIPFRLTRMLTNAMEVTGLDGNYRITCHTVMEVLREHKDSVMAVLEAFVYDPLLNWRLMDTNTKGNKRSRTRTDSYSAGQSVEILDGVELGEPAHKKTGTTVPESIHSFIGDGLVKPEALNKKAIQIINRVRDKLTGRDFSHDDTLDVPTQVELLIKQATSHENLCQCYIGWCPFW

| SMILES | IC50 (mTOR) [nM] | IC50 (ATR; [1]) [nM] | further results |
| --- | --- | --- | --- |
| C[C@@H]1COCCN1c1cc(C2(S(C)(=O)=O)CC2)nc(-c2cccc3[nH]ccc23)n1 [Example 3.01, 4-{4-[(3R)-3-Methylmorpholin-4-yl]-6-[1-(methylsulfonyl)cyclopropyl]pyrimidin-2-yl}-1H-indole] | – | – | IC50 (HT29 cells; Homo sapiens, HT-29, 120 h, Carboplatin + 0.1 uM Example 3.01, 5 days growth, read-out: IC50): 1.96 µg/mL; IC50 (HT29 cells; Homo sapiens, HT-29, 120 h, Carboplatin + 0.3 uM Example 3.01, 5 days growth, read-out: IC50): 0.39 µg/mL; PF50 (HT29 cells; potentiation factor of Carboplatin by 0.1 uM Example 3.01 (ratio of IC50 values)): 2.02; PF50 (HT29 cells; potentiation factor of Carboplatin by 0.3 uM Example 3.01 (ratio of IC50 values)): 10.08 |
| N.N.O=C([O-])C1(C(=O)[O-])CCC1.[Pt+2] [Carboplatin, reference compound] | – | – | IC50 (HT29 cells; Carboplatin alone, 5 days growth): 3.97 µg/mL |
| CCS(=O)(=O)C1(c2cc(N3CCOC[C@H]3C)nc(-c3cccc4[nH]ccc34)n2)CC1 [Example 3.20, 4-{4-[1-(Ethylsulfonyl)cyclopropyl]-6-[(3R)-3-methylmorpholin-4-yl]pyrimidin-2-yl}-1H-indole] | 71.1 | 2.5 | – |
| O=S(=O)(C1CC1)C1(c2cc(N3CCOCC3)nc(-c3cccc4[nH]ccc34)n2)CCNCC1 [Example 1.14, 4-{4-[4-(cyclopropylsulfonyl)piperidin-4-yl]-6-morpholin-4-ylpyrimidin-2-yl}-1H-indole] | 1460 | 22.4 | – |
| C[C@H]1COCCN1c1cc(C2(S(C)(=O)=O)CCOCC2)nc(-c2cccc3[nH]ccc23)n1 [Example 2.04, 4-{4-[(3S)-3-Methylmorpholin-4-yl]-6-[4-(methylsulfonyl)tetrahydro-2H-pyran-4-yl]pyrimidin-2-yl}-1H-indole] | 300 | 4.55 | – |
| Cc1cc2c(-c3nc(N4CCOCC4)cc(C4(S(C)(=O)=O)CC4)n3)cccc2[nH]1 [Example 1.03, 2-Methyl-4-{4-[1-(methylsulfonyl)cyclopropyl]-6-morpholin-4-ylpyrimidin-2-yl}-1H-indole] | 166 | – | IC50 (ATR): 27.5 nM |
| C[C@@H]1COCCN1c1cc(C2(S(=O)(=O)C3CC3)CC2)nc(-c2cccc3[nH]ccc23)n1 [Example 3.17, 4-{4-[1-(Cyclopropylsulfonyl)cyclopropyl]-6-[(3R)-3-methylmorpholin-4-yl]pyrimidin-2-yl}-1H-indole] | 97.8 | 2.26 | – |
| Cc1cc2c(-c3nc(N4CCOC[C@H]4C)cc(C4(S(C)(=O)=O)CCOCC4)n3)cccc2[nH]1 [Example 3.10, 2-Methyl-4-{4-[(3R)-3-methylmorpholin-4-yl]-6-[4-(methylsulfonyl)tetrahydro-2H-pyran-4-yl]pyrimidin-2-yl}-1H-indole] | 145 | 3.58 | – |
| O=S(=O)(C1CC1)C1(c2cc(N3CCOCC3)nc(-c3cccc4[nH]ccc34)n2)CCOCC1 [Example 1.13, 4-{4-[4-(cyclopropylsulfonyl)tetrahydro-2H-pyran-4-yl]-6-morpholin-4-ylpyrimidin-2-yl}-1H-indole] | 1240 | 58.3 | – |
| C[C@H]1COCCN1c1cc(C2(S(=O)(=O)C3CC3)CCNCC2)nc(-c2cccc3[nH]ccc23)n1 [Example 2.01, 4-{4-[4-(Cyclopropylsulfonyl)piperidin-4-yl]-6-[(3S)-3-methylmorpholin-4-yl]pyrimidin-2-yl}-1H-indole] | 497 | 26.8 | – |
| Cc1cc(-c2nc(N3CCOC[C@H]3C)cc(C3(S(C)(=O)=O)CCOCC3)n2)c2cc[nH]c2c1 [Example 3.09, 6-Methyl-4-{4-[(3R)-3-methylmorpholin-4-yl]-6-[4-(methylsulfonyl)tetrahydro-2H-pyran-4-yl]pyrimidin-2-yl}-1H-indole] | 451 | 1.58 | – |
| C[C@@H]1COCCN1c1cc(C2(S(=O)(=O)C3CC3)CCNCC2)nc(-c2cccc3[nH]ccc23)n1 [Example 3.18, 4-{4-[4-(Cyclopropylsulfonyl)piperidin-4-yl]-6-[(3R)-3-methylmorpholin-4-yl]pyrimidin-2-yl}-1H-indole] | 383 | 7.62 | – |
